Test results: patent US4207326A, “Antimicrobial quaternary pyrazole derivatives” (Cilag-Chemie A.G., priority 1979, dated 1980)
Read-outs that look alike come from different tables or passages of the source.

Legend:
C. albicans = assay: Antimycotic activity: Minimum Inhibitory Concentration; format: cell-based, Candida albicans ATCC 10231; settings: pH 5.5, 37° C., 72 hours; for MIC: Candida albicans, pH 5.5, C. albicans, read-out: Minimum Inhibitory Concentrations; for Minimum Inhibitory Concentrations: C. albicans
Description: (§1) The antimicrobial activity was determined by inoculation of the test microorganism into suitable growth media containing solutions of the compounds at concentrations of 100, 50, 10, 5, 1.0, 0.5 and 0.1 μg/ml. The reference antibiotics used were Gentamicin for the antibacterial tests and Amphotericin B for the antimycotic and antifungal tests. After incubation the antimicrobial activity was recorded as the Minimal Inhibitory Concentration (M.I.C.), i.e., the lowest concentration preventing macroscopically visible growth, for each test compound against each organism.
(§2) An initial solution of each formula (I) compound to be tested in sterile distilled water was prepared at a concentration of 1000 μg/ml. With appropriate dilutions using sterile distilled water, additional solutions were prepared at concentrations of 500, 100, 50, 10, 5 and 1 μg/ml.
(§3) The two species, C. albicans and C. tropicalis, were maintained on Sabouraud-Dextrose Agar (Oxoid CM41) and cultures for the preparation of the inoculum were incubated on this agar at 37° C. for 48 hours. 4.5 Ml volumes of citric acid-phosphate buffer pH 5.5 plus Yeast-Nitrogen Base (Difco 0392-15) were then inoculated from the agar cultures and incubated at 37° C. for 48 hours. 0.1 Ml aliquots of these cultures were then added to 100 ml volumes of sterile physiological saline to give the final inocula.
(§4) (b) For the tests on each of the C. albicans, C. tropicalis and C. neoformans strains and each of the test and reference compounds, a series of 8 tubes containing 4.5 ml volumes of citric acid-phosphate buffer pH 5.5 plus Yeast-Nitrogen Base (Difco 0392-15) were prepared. To 7 of these were added 0.5 ml volumes of the final solutions of the test compounds, giving final concentrations in the broths of 100, 50, 10, 5, 1.0, 0.5 and 0.1 μg/ml. To the eighth tube in each series was added 0.5 ml of the solvent used and diluted as for the preparation of the 1000 μg/ml solution of the compound. This tube was used as the growth control. The tubes were then inoculated with 0.1 ml aliquots of the inocula prepared as in "(b) Fungi" above. The tubes inoculated with the C. albicans and C. tropicalis were inoculated at 37° C. for 72 hours and the tubes inoculated with the C. neoformans straim were incubated at 30° C. for 72 hours. […] The tubes were then examined for evidence of growth as shown by turbidity of the medium and the lowest concentration of the test compound which prevented fungal growth was recorded as the Minimal Inhibitory Concentration. This test procedure was carried out on two separate days.

P. aeruginosa = assay: Antibacterial activity: Minimum Inhibitory Concentration; format: cell-based, Pseudomonas aeruginosa ATCC 9027; settings: P. aeruginosa, 37° C., 24 hours; for MIC: Pseudomonas aeruginosa, read-out: Minimum Inhibitory Concentration
Description: as §1, §2
They were cultured and maintained on Tryptone Soy Agar (Oxoid CM 131), with the addition of 10% horse blood for the S. pyogenes.
To prepare the organisms as inocula for the test, slopes of this medium were streaked with the organisms and incubated at 37° C. for 24 hours. 4.5 Ml volumes of Brian-Heart Infusion Broth (Oxoid CM 225) were then inoculated with a platinum loop from the agar slope cultures and incubated for 24 hours at 37° C. The final inocula were then prepared by adding 0.1 ml aliquots of the Brain-Heart Infusion Broth cultures to 100 ml volumes of sterile physiological saline.
(a) For the test on each of the bacterial strains and each of the test and reference compounds, a series of 8 tubes containing 4.5 ml volumes of Brain-Heart Infusion Broth (Oxoid CM 225) were prepared. To 7 of these were added 0.5 ml volumes of the final solutions of the test compouns, giving final concentrations in the broths of 100, 50, 10, 5, 1.0, 0.5 and 0.1 μg/ml. To the eighth tube in each series was added 0.5 ml of the solvent used and diluted as for the preparation of the 1000 μg/ml solution of the compound. This tube was used as the growth control. The tubes were inoculated with 0.02 ml aliquots of the inocula prepared in accordance with "(a) Bacteria" above, and incubated at 37° C. for 24 hours. The tubes were then examined for evidence of bacterial growth as shown by turbidity of the medium and the lowest concentration of the test compound which prevented bacterial growth was recorded as the Minimal Inhibitory Concentration. This test procedure was carried out on two separate days.

A. fumigatus = assay: Antifungal activity: Minimum Inhibitory Concentration; format: cell-based, Aspergillus fimigatus (A. fumigatus) NCPF 2140; settings: A. fumigatus, 27° C., one week; for MIC: Aspergillus fumigatus, read-out: Minimum Inhibitory Concentration
Description: as §1, §2
(§5) The A. corymbifera, A. fumigatus, S. schenkii, T. rubrum, T. mentagrophytes, M. canis and P. verrucosa strains were all maintained on Sabouraud-Dextrose Agar (Oxoid CM 41) by incubating for 14 days at 27° C. To prepare the inocula 30 ml volumes of Sabouraud-Liquid medium (Oxoid CM 147) were inoculated from the agar cultures and incubated at 27° C. until heavy uniform growth resulted. The mycelial growth was then broken up by shaking with glass beads.
(§6) 1 Ml aliquots were removed from each of the cultures for the purpose of making viable counts and the cultures were then held at 4° C. The viable counts were made by preparing serial ten-fold dilutions of the cultures in sterile physiological saline and spreading on plates of Sabouraud-Dextrose Agar (Oxoid CM 41) which were then incubated at 27° C. for 14 days. When the viable counts had confirmed that each of the inocula contained approximately 10^6 colony forming units (C.F.U.) per ml the cultures were withdrawn from the refrigerator and used as the inocula for the tests.
(§7) (c) For the tests on each of the remaining seven strains and each of the test and reference compounds, a series of 8 tubes containing 4.5 ml volumes of Sabouraud-Liquid Medium (Oxoid CM 147) were prepared. To 7 of these were added 0.5 ml volumes of the final solutions of the test compounds, giving final concentrations in the broths of 100, 50, 10, 5, 1.0, 0.5 and 0.1 μg/ml. To the eighth tube in each series was added 0.5 ml of the solvent used and diluted as for the preparation of the 500 μg/ml solution of the compound. This tube was used as a growth control. The tubes were then inoculated with 0.1 ml aliquots of the inocula prepared as in "(b) Fungi" above. The tubes were then incubated at 27° C. with continuous shaking for a period of one week. The tubes were then examined for evidence of growth as shown by the presence of mycelial growth in the medium and the lowest concentration of the test compound which prevented fungal growth was recorded as the Minimal Inhibitory Concentration. This test procedure was carried out on two separate days.

C. tropicalis = assay: Antimycotic activity: Minimum Inhibitory Concentration; format: cell-based, Candida tropicalis NCPF 3111; settings: pH 5.5, 37° C., 72 hours; for MIC: Candida tropicalis, pH 5.5, C. tropicalis, read-out: Minimum Inhibitory Concentrations; for Minimum Inhibitory Concentrations: C. tropicalis
Description: as §1, §2, §3, §4

T. rubrum = assay: Antifungal activity: Minimum Inhibitory Concentration; format: cell-based, Trichophyton rubrum NCPF 197; settings: T. rubrum, 27° C., one week; for MIC: Trichophyton rubrum, read-out: Minimum Inhibitory Concentration
Description: as §1, §2, §5, §6, §7

T. mentagrophytes = assay: as above; format: cell-based, Trichophyton mentagrophytes NCPF 410; settings: T. mentagrophytes, 27° C., one week; for MIC: Trichophyton mentagrophytes, read-out: Minimum Inhibitory Concentration
Description: as §1, §2
T. mentagrophytes NCPF 410
as §5, §6, §7

Compound	MIC (C. albicans; Day 1) [µg/mL]	MIC (C. albicans; Day 2) [µg/mL]	MIC (P. aeruginosa; Day 1) [µg/mL]	MIC (P. aeruginosa; Day 2) [µg/mL]	MIC (A. fumigatus; Day 1) [µg/mL]	MIC (A. fumigatus; Day 2) [µg/mL]	MIC (C. tropicalis; Day 1) [µg/mL]	MIC (C. tropicalis; Day 2) [µg/mL]	MIC (T. rubrum; Day 1) [µg/mL]	MIC (T. rubrum; Day 2) [µg/mL]	MIC (T. mentagrophytes; Day 1) [µg/mL]	MIC (T. mentagrophytes; Day 2) [µg/mL]	also measured
CCCCCCCCCCCC[n+]1c(C)cc(C)n1Cc1ccc(Cl)cc1.[Br-] [Example 6-E, 2-(p-chlorobenzyl)-3,5-dimethyl-1-dodecyl-pyrazolium bromide]	1	5	5	5	10	5	5	1	5	5	5	5	
2,3(5)-dimethyl-1-dodecyl-pyrazolium methosulfate [Example 8-A]													Minimum Inhibitory Concentrations (C. albicans; Day 1): 10 µg/mL; Minimum Inhibitory Concentrations (C. albicans; Day 2): 50 µg/mL; Minimum Inhibitory Concentration (P. aeruginosa; Day 1): 50 µg/mL; Minimum Inhibitory Concentration (P. aeruginosa; Day 2): 50 µg/mL; Minimum Inhibitory Concentration (A. fumigatus; Day 1): 100 µg/mL; Minimum Inhibitory Concentration (A. fumigatus; Day 2): 100 µg/mL; Minimum Inhibitory Concentrations (C. tropicalis; Day 1): 5 µg/mL; Minimum Inhibitory Concentrations (C. tropicalis; Day 2): 5 µg/mL; Minimum Inhibitory Concentration (T. rubrum; Day 1): 5 µg/mL; Minimum Inhibitory Concentration (T. rubrum; Day 2): 10 µg/mL; Minimum Inhibitory Concentration (T. mentagrophytes; Day 1): 5 µg/mL; Minimum Inhibitory Concentration (T. mentagrophytes; Day 2): 5 µg/mL
CCCCCCCCCCCCn1c(C)cc(C)[n+]1C [Example 1, 1-dodecyl-2,3,5-trimethyl-pyrazolium methosulfate]	10	50	50	10	100	> 100	5	5	10	10	50	50	
